The values that follow are results of earlier work, collected in US20250049933A1, “DRUG DELIVERY SYSTEM FOR TARGETED CANCER TREATMENT” (priority 2024, published 2025).

The structures appear in SMILES notation.

Series [1] concerns pancreatic cancer.
The conditions of series [2]: in vivo.

For the compound `Nc1ccn([C@@H]2O[C@H](CO)[C@@H](O)C2(F)F)c(=O)n1` [GEM, gemcitabine], in series [1], the overall survival is 6.7 months. Further, the oral bioavailability in series [2] is 9%.
